Results taken from patent US20120142015A1, “GFP FUSION PROTEINS AND THEIR USE” (The Board of Trustees of The University of Illinois, priority 2001, published 2012).

Tests used:
[1] = system: Gαs-GFP; assay type: cell-based
[2] = system: Gαs-GFP; assay type: cell-based; remark: listed apart in the source
[3] = target: β-adrenergic receptor; assay: cell-based or functional assay
[4] = living cells transfected with Gαs-GFP

## cholera toxin
[1]
  displacement of Gαs-GFP from the plasma membrane: gradual displacement of Gαs-GFP from the plasma membrane throughout the cytoplasm

## CC(C)NCC(O)c1ccc(O)c(O)c1 (centres unmarked) [isoproterenol]
[2]; isoproterenol 20 μM, COS cells, 37° C., 58 cells in 15 experiments
  cells showing internalized Gαs-GFP in response to isoproterenol: Approximately 70%
[2]; [4]
  release of Gαs-GFP from plasma membrane into the cytoplasm: rapid partial release of Gαs-GFP into the cytoplasm
  time after treatment at which extent of Gαs-GFP release from plasma membrane was maximal: 1 min

## Gαs-GFP fusion protein (GFP inserted within the internal amino acid sequence of long Gαs)
[3]
  percent of cells with internalized Gαs-GFP in response to isoproterenol (20 µM): 70%
